# Data published in patent US20090156577A1, “7-AMINO ALKYLIDENYL-HETEROCYCLIC QUINOLONES AND NAPHTHYRIDONES” (priority 2004, published 2009).
# Counter-ions that a name gives are not always drawn. Like-named read-outs stand apart in the source and are kept apart here.
# Test system: pathogenic bacteria
# Assay: MIC by microdilution broth method (NCCLS M7-A4), in vitro antibacterial activity
# Assay type: cell-based
# Outline: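 Broth microdilution per NCCLS M7-A4: two-fold serial dilutions in cation-adjusted Mueller-Hinton broth, inoculum about 5×10^4 CFU/well. Trays incubated 16–20 h at 35 °C. MIC read by comparing growth against no-compound growth controls.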
# [1] = Staphylococcus aureus, Organism A: Staphylococcus aureus OC4172, read-out: MIC
# [2] = Streptococcus pneumoniae, ATCC49619, Organism E: Streptococcus pneumoniae ATCC 49619, read-out: MIC
# [3] = Streptococcus pneumoniae, Organism B: fluoroquinolone-resistant clinical isolate of Streptococcus pneumoniae (QRDR amino acid substitutions)
# [4] = Streptococcus pneumoniae, Organism C: fluoroquinolone-resistant clinical isolate of Streptococcus pneumoniae (QRDR amino acid substitutions)
# [5] = Streptococcus pneumoniae, Organism D: fluoroquinolone-resistant clinical isolate of Streptococcus pneumoniae (QRDR amino acid substitutions)
Structure (SMILES),MIC [1],MIC [2],MIC [3],MIC [4],MIC [5],"MIC (Staphylococcus aureus, Organism A: Staphylococcus aureus OC4172)","MIC (Streptococcus pneumoniae, ATCC49619, Organism E: Streptococcus pneumoniae ATCC 49619)"
"CNC/C(Cl)=C1/CCCN(c2cc3c(cc2F)c(=O)c(C(=O)O)cn3C2CC2)C1.Cl [Compound 428, (E)-7-[3-(1-Chloro-2-methylamino-ethylidene)-piperidin-1-yl]-1-cyclopropyl-6-fluoro-4-oxo-1,4-dihydroquinoline-3-carboxylic Acid Hydrochloride Salt]",0.25 µg/mL,1 µg/mL,> 16 µg/mL,> 16 µg/mL,> 16 µg/mL,–,–
"CNCC(F)=C1CN(c2cc3c(cc2F)c(=O)c(C(=O)O)cn3C2CC2)C1.O=C(O)C(F)(F)F [Compound 430, 1-Cyclopropyl-6-fluoro-7-[3-(1-fluoro-2-methylamino-ethylidene)-azetidin-1-yl]-4-oxo-1,4-dihydro-quinoline-3-carboxylic acid trifluoroacetic acid salt]",0.12 µg/mL,0.5 µg/mL,8 µg/mL,2 µg/mL,4 µg/mL,–,–
"CNCC(Cl)=C1CN(c2cc3c(cc2F)c(=O)c(C(=O)O)cn3C2CC2)C1 [Compound 431, 7-[3-(1-Chloro-2-methylamino-ethylidene)-azetidin-1-yl]-1-cyclopropyl-6-fluoro-4-oxo-1,4-dihydro-quinoline-3-carboxylic acid trifluoroacetic acid salt]",–,–,4 µg/mL,1 µg/mL,2 µg/mL,0.06 µg/mL,0.25 µg/mL
"COc1c(N2CCC(=C(C#N)CN)CC2)c(F)cc2c(=O)c(C(=O)O)cn(C3CC3)c12 [Compound 433, 7-[4-(2-Amino-1-cyano-ethylidene)-piperidin-1-yl]-1-cyclopropyl-6-fluoro-8-methoxy-4-oxo-1,4-dihydro-quinoline-3-carboxylic Acid]",≤ 0.015 µg/mL,0.12 µg/mL,–,0.5 µg/mL,0.5 µg/mL,–,–
"C[C@H]1COc2c(N3CCC(=C(C#N)CN)CC3)c(F)cc3c(=O)c(C(=O)O)cn1c23 [Compound 435, 9-[4-(2-Amino-1-cyano-ethylidene)-piperidin-1-yl]-8-fluoro-(3S)-3-methyl-6-oxo-2,3-dihydro-6H-1-oxa-3a-aza-phenalene-5-carboxylic Acid]",0.12 µg/mL,0.5 µg/mL,–,4 µg/mL,8 µg/mL,–,–
"N#CC(CN)=C1CCN(c2c(F)cc3c(=O)c(C(=O)O)cn(C4CC4)c3c2OC(F)F)CC1 [Compound 437, 7-[4-(2-Amino-1-cyano-ethylidene)-piperidin-1-yl]-1-cyclopropyl-6-fluoro-8-difluoromethoxy-4-oxo-1,4-dihydro-quinoline-3-carboxylic Acid]",0.06 µg/mL,0.12 µg/mL,–,1 µg/mL,0.25 µg/mL,–,–
"COc1c(N2CCC(=C(C#N)CN)CC2)c(F)cc2c(=O)c(C(=O)O)cn([C@@H]3C[C@@H]3F)c12 [Compound 439, 7-[4-(2-Amino-1-cyano-ethylidene)-piperidin-1-yl]-6-fluoro-(1R,2S)-1-(2-fluoro-cyclopropyl)-8-methoxy-4-oxo-1,4-dihydro-quinoline-3-carboxylic Acid]",0.06 µg/mL,0.25 µg/mL,–,2 µg/mL,2 µg/mL,–,–
"N#C/C(CN)=C1\CCCN(c2nc3c(cc2F)c(=O)c(C(=O)O)cn3C2CC2)C1 [Compound 441, (E)-7-[3-(2-Amino-1-cyano-ethylidene)-piperidin-1-yl]-1-cyclopropyl-6-fluoro-4-oxo-1,4-dihydro-[1,8]naphthyridine-3-carboxylic Acid]",0.5 µg/mL,8 µg/mL,8 µg/mL,> 16 µg/mL,> 16 µg/mL,–,–
"N#C/C(CN)=C1/CCCN(c2nc3c(cc2F)c(=O)c(C(=O)O)cn3C2CC2)C1 [Compound 443, (Z)-7-[3-(2-Amino-1-cyano-ethylidene)-piperidin-1-yl]-1-cyclopropyl-6-fluoro-4-oxo-1,4-dihydro-[1,8]naphthyridine-3-carboxylic Acid]",0.5 µg/mL,8 µg/mL,8 µg/mL,> 16 µg/mL,> 16 µg/mL,–,–
"COc1c(N2CCC(=C(Cl)CNC(=O)CN)CC2)c(F)cc2c(=O)c(C(=O)O)cn(C3CC3)c12.O=C(O)C(F)(F)F [Compound 445, 7-{4-[2-(2-Amino-acetylamino)-1-chloro-ethylidene]-piperidin-1-yl}-1-cyclopropyl-6-fluoro-8-methoxy-4-oxo-1,4-dihydro-quinoline-3-carboxylic Acid Trifluoroacetate Salt]",0.12 µg/mL,1 µg/mL,16 µg/mL,> 16 µg/mL,> 16 µg/mL,–,–
"COc1c(N2CCC/C(=C(/Cl)CN)C2)c(F)cc2c(=O)c(C(=O)O)cn(C3CC3)c12 [Compound 446, (Z)-7-[3-(2-Amino-1-chloro-ethylidene)-piperidin-1-yl]-1-cyclopropyl-6-fluoro-8-methoxy-4-oxo-1,4-dihydro-quinoline-3-carboxylic acid]",0.25 µg/mL,1 µg/mL,–,4 µg/mL,4 µg/mL,–,–
"NC/C(Cl)=C1\CCCN(c2c(F)cc3c(=O)c(C(=O)O)cn(C4CC4)c3c2OC(F)F)C1 [Compound 447, (Z)-7-[3-(2-Amino-1-chloro-ethylidene)-piperidin-1-yl]-1-cyclopropyl-8-difluoromethoxy-6-fluoro-4-oxo-1,4-dihydro-quinoline-3-carboxylic acid]",0.25 µg/mL,1 µg/mL,–,16 µg/mL,1 µg/mL,–,–
"C[C@H]1COc2c(N3CCC/C(=C(/Cl)CN)C3)c(F)cc3c(=O)c(C(=O)O)cn1c23 [Compound 448, (Z)-9-[3-(2-Amino-1-chloro-ethylidene)-piperidin-1-yl]-8-fluoro-(3S)-3-methyl-6-oxo-2,3-dihydro-6H-1-oxa-3a-aza-phenalene-5-carboxylic acid]",0.25 µg/mL,2 µg/mL,–,8 µg/mL,16 µg/mL,–,–
"COc1c(N2CCC/C(=C(/Cl)CN)C2)c(F)cc2c(=O)c(C(=O)O)cn([C@@H]3C[C@@H]3F)c12 [Compound 449, (Z)-7-[3-(2-Amino-1-chloro-ethylidene)-piperidin-1-yl]-6-fluoro-(1R,2S)-1-(2-fluoro-cyclopropyl)-8-methoxy-4-oxo-1,4-dihydro-quinoline-3-carboxylic acid]",0.25 µg/mL,2 µg/mL,–,> 16 µg/mL,16 µg/mL,–,–
"NC/C(Cl)=C1\CCCN(c2c(F)cc3c(=O)c(C(=O)O)cn(-c4nc(N)c(F)cc4F)c3c2Cl)C1 [Compound 450, (Z)-7-[3-(2-Amino-1-chloro-ethylidene)-piperidin-1-yl]-1-(6-amino-3,5-difluoro-pyridin-2-yl)-8-chloro-6-fluoro-4-oxo-1,4-dihydro-quinoline-3-carboxylic acid]",0.12 µg/mL,0.5 µg/mL,–,8 µg/mL,8 µg/mL,–,–
"Cc1c(F)c(N2CCC/C(=C\CN)C2)cc2c1c(=O)c(C(=O)O)cn2C1CC1 [Compound 451, (E)-7-[3-(2-Amino-ethylidene)-piperidin-1-yl]-1-cyclopropyl-6-fluoro-5-methyl-4-oxo-1,4-dihydro-quinoline-3-carboxylic acid]",0.25 µg/mL,1 µg/mL,–,16 µg/mL,1 µg/mL,–,–
"Cc1c(F)c(N2CCC/C(=C(/Cl)CN)C2)cc2c1c(=O)c(C(=O)O)cn2C1CC1 [Compound 452, (Z)-7-[3-(2-Amino-1-chloro-ethylidene)-piperidin-1-yl]-1-cyclopropyl-6-fluoro-5-methyl-4-oxo-1,4-dihydro-quinoline-3-carboxylic acid]",0.5 µg/mL,4 µg/mL,–,4 µg/mL,> 16 µg/mL,–,–
